We go through 35 molecules from ChEMBL document CHEMBL1141701, “N-alkyl-5H-pyrido[4,3-b]indol-1-amines and derivatives as novel urotensin-II receptor antagonists” (Bioorg Med Chem Lett, 2008).

The term Ki denotes the dissociation constant of the complex between target and ligand, obtained from inhibition or displacement. The term IC50 denotes the concentration that gives 50% inhibition. The term bioavailability denotes the share of a dose that reaches the circulation, judged against a reference dose that is usually intravenous. The low end stands for poor availability, the high end for good availability. As a reminder, the half-life is how long it takes for the measured level to halve. Read a low half-life as rapid decline. What is called solubility is how much of the substance goes into solution per volume.

In data set [1] the target is T1, Urotensin-2 receptor (Homo sapiens, UniProt Q9UKP6).
T1 sequence (Q9UKP6 whole entry): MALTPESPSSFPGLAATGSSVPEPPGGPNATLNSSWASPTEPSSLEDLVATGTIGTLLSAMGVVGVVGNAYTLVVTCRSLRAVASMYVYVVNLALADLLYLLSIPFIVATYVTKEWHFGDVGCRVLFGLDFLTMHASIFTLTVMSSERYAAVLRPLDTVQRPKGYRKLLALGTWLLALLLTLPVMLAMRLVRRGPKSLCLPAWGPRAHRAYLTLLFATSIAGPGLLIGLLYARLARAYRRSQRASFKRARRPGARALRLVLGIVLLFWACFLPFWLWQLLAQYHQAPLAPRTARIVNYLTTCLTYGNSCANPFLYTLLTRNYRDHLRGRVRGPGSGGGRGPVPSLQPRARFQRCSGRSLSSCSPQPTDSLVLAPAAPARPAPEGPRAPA
The data set can be described thus: Displacement of [125I]human urotensin 2 from human recombinant urotensin 2 receptor expressed in HEK293 cells. In kind it is cell-based.

The target of another data set is T2, Urotensin II receptor (Felis catus, UniProt Q533H1).
T2 sequence (Q533H1 whole entry): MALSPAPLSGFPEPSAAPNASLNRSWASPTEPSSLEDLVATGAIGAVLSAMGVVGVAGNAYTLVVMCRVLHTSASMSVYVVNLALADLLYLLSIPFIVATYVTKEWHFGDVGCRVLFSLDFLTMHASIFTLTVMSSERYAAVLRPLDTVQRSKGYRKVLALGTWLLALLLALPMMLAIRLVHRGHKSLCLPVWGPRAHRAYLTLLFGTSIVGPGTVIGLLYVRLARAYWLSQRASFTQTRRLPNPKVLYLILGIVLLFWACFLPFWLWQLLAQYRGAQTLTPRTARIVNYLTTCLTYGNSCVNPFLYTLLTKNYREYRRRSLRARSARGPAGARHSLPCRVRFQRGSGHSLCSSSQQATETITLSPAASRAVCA
The experiment in a line: Displacement of [125I]human urotensin 2 from cat urotensin 2 receptor expressed in HEK293 cells. The data set is classed as cell-based. For orientation: Loss of bound radioactivity is the signal in a displacement assay; it reports binding, not function.

For data set [2], the target named is T1, Urotensin-2 receptor. The experiment in a line: Antagonist activity at human urotensin 2 receptor by FLIPR assay. Particulars: read-out: pA2 (converted). The data set is classed as functional.
The target of data set [3] is Voltage-gated inwardly rectifying potassium channel KCNH2 (Homo sapiens, UniProt Q12809). The data set can be described thus: Inhibition of human ERG.
Chain of Voltage-gated inwardly rectifying potassium channel KCNH2 (Q12809 whole entry): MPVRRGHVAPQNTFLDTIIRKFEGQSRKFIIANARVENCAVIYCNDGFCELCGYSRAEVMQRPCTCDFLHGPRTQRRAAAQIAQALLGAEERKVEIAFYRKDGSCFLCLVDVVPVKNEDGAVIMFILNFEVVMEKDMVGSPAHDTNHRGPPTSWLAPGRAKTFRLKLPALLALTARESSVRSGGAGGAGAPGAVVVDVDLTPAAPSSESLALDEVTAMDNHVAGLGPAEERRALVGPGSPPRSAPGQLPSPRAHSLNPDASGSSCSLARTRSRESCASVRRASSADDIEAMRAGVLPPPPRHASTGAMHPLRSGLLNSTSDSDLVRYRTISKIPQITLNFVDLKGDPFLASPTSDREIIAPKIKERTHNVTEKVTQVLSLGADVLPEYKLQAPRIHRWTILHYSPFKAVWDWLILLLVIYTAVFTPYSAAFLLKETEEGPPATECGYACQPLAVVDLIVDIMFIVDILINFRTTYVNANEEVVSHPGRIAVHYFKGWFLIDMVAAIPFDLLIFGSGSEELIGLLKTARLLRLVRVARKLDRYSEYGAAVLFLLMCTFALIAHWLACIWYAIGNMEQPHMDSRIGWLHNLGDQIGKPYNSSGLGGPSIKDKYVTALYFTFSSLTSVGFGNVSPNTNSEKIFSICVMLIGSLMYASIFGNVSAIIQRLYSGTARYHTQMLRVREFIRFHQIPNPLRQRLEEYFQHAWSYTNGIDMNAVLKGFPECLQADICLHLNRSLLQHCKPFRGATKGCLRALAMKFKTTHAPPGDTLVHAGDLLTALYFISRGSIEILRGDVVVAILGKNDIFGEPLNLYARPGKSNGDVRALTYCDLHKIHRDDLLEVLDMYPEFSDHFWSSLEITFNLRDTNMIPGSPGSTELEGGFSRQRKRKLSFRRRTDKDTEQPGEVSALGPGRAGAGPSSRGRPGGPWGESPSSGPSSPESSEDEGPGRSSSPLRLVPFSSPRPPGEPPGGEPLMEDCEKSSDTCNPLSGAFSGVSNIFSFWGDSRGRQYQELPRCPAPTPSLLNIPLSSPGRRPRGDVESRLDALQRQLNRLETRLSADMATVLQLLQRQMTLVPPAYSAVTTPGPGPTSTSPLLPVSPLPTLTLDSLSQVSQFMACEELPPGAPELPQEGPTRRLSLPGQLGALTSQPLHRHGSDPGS
A short description of data set [4]: Selectivity for human urotensin 2 receptor over adrenergic beta2 receptor.
Data set [5] is described as follows: Selectivity for human urotensin 2 receptor over adenosine A2b receptor.
Data set [6] is described as follows: Selectivity for human urotensin 2 receptor over 5HT6 receptor.
Data set [7] has as its target T1, Urotensin-2 receptor. The data set can be described thus: Antagonist activity at human recombinant urotensin 2 receptor expressed in HEK293 cells assessed as inhibition of […] calcium mobilization by FLIPR assay. In kind it is functional, cell-based. In general terms: Calcium flux is commonly read through the fluorescence of an indicator in the cells.

The nature of data set [8]: Selectivity for human urotensin 2 receptor over muscarinic M2 receptor.
Data set [9] can be described thus: Oral bioavailability in rat at 0.97 mg/kg. Particulars: in vivo. In kind it is ADME, organism-based.
The nature of data set [10]: Selectivity for human urotensin 2 receptor over adenosine A1 receptor.
Data set [11] can be described thus: Selectivity for human urotensin 2 receptor over 5HT4A receptor.
A short description of data set [12]: Selectivity for human urotensin 2 receptor over 5HT1B receptor.
Data set [13] is described as follows: Blood clearance in rat at 0.49 mg/kg, iv or 0.97 mg/kg, po. In kind it is ADME, organism-based.
The nature of data set [14]: Selectivity for human urotensin 2 receptor over dopamine D3 receptor.
The target of another data set is Cytochrome P450 3A4 (Homo sapiens, UniProt P08684). The experiment in a line: Inhibition of CYP3A4. In kind it is ADME.
Chain of Cytochrome P450 3A4 (P08684 whole entry): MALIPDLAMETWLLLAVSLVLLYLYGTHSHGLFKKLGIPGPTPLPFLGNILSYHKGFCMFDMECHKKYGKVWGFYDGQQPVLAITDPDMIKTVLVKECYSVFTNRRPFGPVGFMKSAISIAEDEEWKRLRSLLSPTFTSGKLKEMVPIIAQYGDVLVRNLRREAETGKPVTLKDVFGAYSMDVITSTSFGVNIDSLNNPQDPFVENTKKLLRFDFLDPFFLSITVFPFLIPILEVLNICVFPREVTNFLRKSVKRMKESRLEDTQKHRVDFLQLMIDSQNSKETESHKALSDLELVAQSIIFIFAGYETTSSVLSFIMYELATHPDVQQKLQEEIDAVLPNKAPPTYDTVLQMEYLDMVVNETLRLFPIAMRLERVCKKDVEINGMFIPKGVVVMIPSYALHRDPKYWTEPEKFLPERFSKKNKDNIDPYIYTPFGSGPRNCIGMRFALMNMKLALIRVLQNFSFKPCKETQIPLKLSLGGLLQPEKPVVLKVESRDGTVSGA
Data set [15] is described as follows: Selectivity for human urotensin 2 receptor over 5HT7 receptor.
Data set [16] is described as follows: Selectivity for human urotensin 2 receptor over muscarinic M3 receptor.
The nature of data set [17]: Selectivity for human urotensin 2 receptor over 5HT1A receptor.
Data set [18] is described as follows: Half life in rat at 0.49 mg/kg, iv or 0.97 mg/kg, po. The conditions noted are these: in vivo. The data set is classed as ADME, organism-based.
The species entered for the next data set is Homo sapiens. The experiment in a line: Selectivity for human urotensin 2 receptor over human ERG.
Data set [19] is described as follows: Selectivity for human urotensin 2 receptor over adrenergic Alpha-1B receptor.
Data set [20] in a line: Permeability across artificial phospholipid membrane by HPLC. The data set is classed as ADME. The conditions noted are these: not told; read-out: permeability.
A short description of data set [21]: Selectivity for human urotensin 2 receptor over CXCR2.
A short description of data set [22]: Aqueous solubility in phosphate buffer by HPLC. In kind it is physicochemical.
Data set [23] is described as follows: Selectivity for human urotensin 2 receptor over histamine H3 receptor.
Data set [24] can be described thus: Selectivity for human urotensin 2 receptor over 5HT2C receptor.
Data set [25] can be described thus: Selectivity for human urotensin 2 receptor over adenosine A2a receptor.
Data set [26] can be described thus: Selectivity for human urotensin 2 receptor over muscarinic M4 receptor.
The target in another data set is Cytochrome P450 2D6 (Homo sapiens, UniProt P10635). The experiment in a line: Inhibition of CYP2D6. The data set is classed as ADME.
Chain of Cytochrome P450 2D6 (P10635 whole entry): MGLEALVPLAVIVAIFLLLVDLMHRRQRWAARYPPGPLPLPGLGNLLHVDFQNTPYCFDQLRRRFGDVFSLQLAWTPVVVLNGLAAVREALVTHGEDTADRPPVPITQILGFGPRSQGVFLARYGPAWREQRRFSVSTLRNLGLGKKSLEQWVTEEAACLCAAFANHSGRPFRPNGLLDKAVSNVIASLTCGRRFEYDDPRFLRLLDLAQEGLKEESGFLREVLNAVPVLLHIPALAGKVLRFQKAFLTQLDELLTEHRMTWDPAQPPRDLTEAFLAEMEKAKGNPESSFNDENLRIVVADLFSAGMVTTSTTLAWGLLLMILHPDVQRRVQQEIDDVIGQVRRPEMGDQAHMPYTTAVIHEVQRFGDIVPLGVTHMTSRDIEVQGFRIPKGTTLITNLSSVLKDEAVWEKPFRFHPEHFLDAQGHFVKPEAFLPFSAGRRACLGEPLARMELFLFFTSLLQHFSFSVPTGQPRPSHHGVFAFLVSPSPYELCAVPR
A short description of data set [27]: Selectivity for human urotensin 2 receptor over 5HT3 receptor.
The nature of data set [28]: Selectivity for human urotensin 2 receptor over histamine H1 receptor.
A short description of data set [29]: Selectivity for human urotensin 2 receptor over 5HT2A receptor.
Data set [30] in a line: Selectivity for human urotensin 2 receptor over adrenergic alpha1A receptor.
The nature of data set [31]: Selectivity for human urotensin 2 receptor over muscarinic M5 receptor.
Data set [32] is described as follows: Selectivity for human urotensin 2 receptor over 5HT1D receptor.
The nature of data set [33]: Selectivity for human urotensin 2 receptor over muscarinic M1 receptor.
A short description of data set [34]: Selectivity for human urotensin 2 receptor over dopamine D2 receptor.

Converted amounts (≈) assume the structure as drawn.

With `CCCCN(CCCC)c1nccc2[nH]c3ccccc3c12`, the inhibition constant Ki on Urotensin-2 receptor [1] was 0.794 µM.
With `NC(=O)CCNc1nccc2[nH]c3ccccc3c12`, the inhibition constant Ki at Urotensin-2 receptor [1] was over 7.94 µM.
Regarding `COCCNc1nccc2[nH]c3ccccc3c12`, the inhibition constant (Ki) on Urotensin-2 receptor [1] is 0.02 µM.
As to `CCCNc1nccc2[nH]c3ccccc3c12`, the inhibition constant (Ki) on Urotensin-2 receptor [1] was 0.0251 µM.
Same read-out and setting: then `CCCCNc1ccnc2[nH]c3c(OC)cccc3c12`, with 0.0316 µM.
In the case of `c1ccc2c(c1)[nH]c1ccnc(NC3CCCCC3)c12`, the Ki at Urotensin-2 receptor [1] was over 7.94 µM.
`COCCN(C)c1nccc2[nH]c3ccccc3c12`: the inhibition constant Ki on Urotensin-2 receptor [1] is over 7.94 µM.
As for `CCCCNc1ccnc2[nH]c3ccccc3c12`, the inhibitory constant (Ki) on Urotensin-2 receptor [1] is 0.0794 µM.
In the case of `c1ccc2c(c1)[nH]c1ccnc(NC3CC3)c12`, at Urotensin-2 receptor [1], the Ki is 2.51 µM.
Consider `COCCNc1ccnc2[nH]c3ccccc3c12`, for which the Ki at Urotensin-2 receptor [1] is 0.316 µM.
As for `c1ccc(CCNc2nccc3[nH]c4ccccc4c23)cc1`, at Urotensin-2 receptor [1], the inhibition constant Ki is 0.1 µM.
Regarding `c1ccc2c(c1)[nH]c1ccnc(NCC3CCCCC3)c12`, the Ki on Urotensin-2 receptor [1] was 0.01 µM.
For the molecule `CCCCNc1ccnc2[nH]c3ccc(Cl)cc3c12`, the inhibitory constant (Ki) on Urotensin-2 receptor [1] was 0.0501 µM.
In the case of `CC(=O)NCCNc1nccc2[nH]c3ccccc3c12`, the Ki on Urotensin-2 receptor [1] is over 7.94 µM.
Take `CCCCNc1nccc2c1c1ccccc1n2C`: the Ki is 0.0501 µM at Urotensin-2 receptor [1] and 1 µM at Urotensin II receptor.
As to `c1ccc2c(c1)[nH]c1ccnc(NCC3CC3)c12`, at Urotensin-2 receptor [2], the Kb was 0.126 µM. In addition, the figures for the Ki at Urotensin-2 receptor [1] and at Urotensin II receptor were 0.00631 µM and 2.51 µM, respectively.
For `CCCCCCNc1nccc2[nH]c3ccccc3c12`, the Ki is 0.00631 µM on Urotensin-2 receptor [1] and 0.2 µM on Urotensin II receptor.
On to `c1ccc(CNc2nccc3[nH]c4ccccc4c23)cc1`, for which the Kb at Urotensin-2 receptor [2] is 0.02 µM. The Ki is 0.0126 µM on Urotensin-2 receptor [1] and 1 µM on Urotensin II receptor.
`CCOCCNc1nccc2[nH]c3ccccc3c12`: the Ki on Urotensin-2 receptor [1] was 0.0126 µM.
Still for that read-out and setting: then `c1ccc2c(c1)[nH]c1nccc(NCC3CC3)c12`, with 0.1 µM.
`CCCCNc1nccc2[nH]c3ccccc3c12`: the IC50 in data set [3] is 1.58 µM; on Urotensin-2 receptor [7], 0.501 µM; against Cytochrome P450 3A4, 0.1 µM; on Cytochrome P450 2D6, 0.00794 µM. Also, the Selectivity ratio in data set [4], in data set [5], in [6], in [8], in [10] and in data set [11] was 100 in each case. Further, the Selectivity ratio in data set [12] amounted to 100; in [14], 100; in data set [15], 100; in data set [16] it was 100; in data set [17], 100; in the data set filed under Homo sapiens, 400. The Selectivity ratio in data set [19], in data set [21], in data set [23], in data set [24], in [25] and in [26] was 100 each time. Further, the Selectivity ratio in [27], in data set [28], in [29], in data set [30], in data set [31] and in data set [32] was 100 throughout. For the same molecule, the Selectivity ratio in data set [33] and in data set [34] was 100 each time. This molecule also gave a bioavailability in data set [9] of 11%. The same molecule registered a clearance in [13] of 6.6 L/h/kg. The Kb on Urotensin-2 receptor [2] is 0.1 µM. This molecule also had a half-life in data set [18] of 1.3 h. Further, the Papp in [20] worked out at 470 nm/s. The inhibition constant Ki at Urotensin-2 receptor [1] is 0.00398 µM; at Urotensin II receptor it was 0.631 µM. In [22], the solubility worked out at 195 µM (≈ 46.7 µg/mL).
Consider `CCCCNc1nccc2c1c1ccccc1n2Cc1ccccc1`, for which the inhibition constant Ki at Urotensin-2 receptor [1] is 3.98 µM.
Turning to `CCCCCNc1nccc2[nH]c3ccccc3c12`, the inhibition constant Ki is 0.00398 µM at Urotensin-2 receptor [1] and 0.398 µM on Urotensin II receptor.
`CCC(C)CNc1nccc2[nH]c3ccccc3c12` (centres undefined): the Kb at Urotensin-2 receptor [2] was 0.1 µM. Besides, the Ki was 0.01 µM on Urotensin-2 receptor [1] and 1.26 µM at Urotensin II receptor.
Consider `CC(C)CCNc1nccc2[nH]c3ccccc3c12`, for which the Ki is 0.0126 µM on Urotensin-2 receptor [1] and 1.58 µM at Urotensin II receptor.
On to `c1ccc2c(c1)[nH]c1ccnc(NCCN3CCOCC3)c12`, for which the Ki at Urotensin-2 receptor [1] was over 7.94 µM.
As to `CCCCNc1ccnc2[nH]c3ccc(C)cc3c12`, on Urotensin-2 receptor [1], the Ki is 0.0631 µM.
For `c1csc(CNc2nccc3[nH]c4ccccc4c23)c1`, on Urotensin-2 receptor [2], the Kb is 0.158 µM. The inhibitory constant (Ki) is 0.0251 µM on Urotensin-2 receptor [1] and 3.16 µM at Urotensin II receptor.
With `c1ccc(Nc2nccc3[nH]c4ccccc4c23)cc1`, the Ki at Urotensin-2 receptor [1] was over 7.94 µM.
Still for that read-out and setting: then `CCCC(C)Nc1nccc2[nH]c3ccccc3c12` (centres undefined), with 0.794 µM; and `c1ccc2c(c1)[nH]c1nccc(NCC3CCCCC3)c12`, with 0.794 µM.
On the same count and under the same terms, then `CCCCNc1nccc2c1c1ccccc1n2C(C)C`, with 0.0631 µM; and `CN(C)CCNc1nccc2[nH]c3ccccc3c12`, with over 7.94 µM.
For the molecule `c1ccc2c(c1)[nH]c1ccnc(NCC3CCCO3)c12` (centres undefined), the inhibition constant (Ki) at Urotensin-2 receptor [1] is 0.0794 µM.
As to `CCNc1nccc2[nH]c3ccccc3c12`, the inhibitory constant (Ki) on Urotensin-2 receptor [1] was 1.58 µM.
